Where a name gives a salt, the structure may show the parent alone.
Legend:
[1] = molecular target: NDM-1 (Klebsiella pneumoniae, UniProt C7C422); assay: metallo-β-lactamase inhibition assay (nitrocefin); format: biochemical; conditions: 1.5 nM NDM-1, 100 μM nitrocefin, 37° C., pH 7.5
Description: Compounds of the invention were tested in a metallo-β-lactamase inhibition assay to investigate mechanism of action of the compounds. Results are reported as the concentration of test article required to inhibit enzyme activity by 50% (IC50).
Inhibition of metallo-β-lactamase enzyme function was performed at 37° C. in buffer at pH 7.5 (50 mM HEPES, 150 mM NaCl, 0.1 mM ZnSO4, 20 μg/mL PEG4000), containing 1.5 nM NDM-1, 100 μM nitrocefin, and a range of concentrations of compound. Absorbance at 490 nm was measured using a BMG LABTECH FLUOstar Omega microplate reader every minute for 30 minutes. IC50s were determined from the average increase in OD per minute versus the Log 10 concentration of compound using GraphPad Prism.

[2] = Cytotoxicity Assay (CellTiter-Glo); format: cell-based; conditions: human, Hep G2 cells (ATCC HB-8065); 24 h exposure; read-out: HepG2 CC50
Description: Cytotoxicity was evaluated in human Hep G2 cells (ATCC HB-8065) seeded at a density of 2×10^5 cells per well and incubated for 24 h at 37° C., 5% CO2. Cells were exposed to a doubling dilution series of test article. After 24 h exposure, the viability of the cells was determined using CellTiter-Glo® (Promega, WI, USA) according to the manufacturer's instructions. Results are reported as the concentration of test article required to reduce cell viability by 50% (CC50).

[3] = system: K. pneumoniae NCTC13439 VIM-1; assay: Meropenem combination MIC; format: cell-based; conditions: meropenem only (baseline)
Description: (§1) MICs were determined by exposing bacteria to serial dilutions of antibacterial agents in MHB-II (cation-adjusted Mueller-Hinton Broth pH 7.4) according to Clinical and Laboratory Standards Institute (CLSI) broth microdilution guidelines (Cockerill et al., 2012).
(§2) Combination MIC were performed as described for MIC determinations with the addition of 4 mg/L test article to MHB-II.
(§3) The compounds of the invention were tested against a primary panel of bacterial strains, columns I-V of Table 2. As appropriate, compounds considered suitable for further investigation were tested against a secondary panel of bacterial strains, columns VI and VII of Table 2.

[4] = system: E. coli NCTC13476 IMP; assay: Meropenem combination MIC; format: cell-based; conditions: meropenem only (baseline)
Description: as §1, §2, §3

[5] = system: K. pneumoniae NCTC13440 VIM-1; assay: Meropenem combination MIC; format: cell-based; conditions: meropenem only (baseline)
Description: as §1, §2, §3

[6] = system: E. coli ATCCBAA-2452 NDM-1; assay: Meropenem combination MIC; format: cell-based; conditions: meropenem only (baseline)
Description: as §1, §2, §3

[7] = system: K. pneumoniae ATCC BAA2146 NDM-1; assay: Meropenem combination MIC; format: cell-based; conditions: meropenem only (baseline)
Description: as §1, §2, §3

[8] = system: A. baumannii SG698 NDM-1; assay: Meropenem combination MIC; format: cell-based; conditions: meropenem only (baseline)
Description: as §1, §2, §3

[9] = system: Cerep SafetyScreen44 Panel (44 targets); assay: off-target inhibition, Cerep SafetyScreen44 Panel
Description: Compounds were also tested for off-target inhibition in a Cerep SafetyScreen44 Panel.

[10] = solubility study in saline, identified visually; format: physicochemical; conditions: 2 mg in 40 μL saline (50 mg/mL), visual; free base unless indicated
Description: Compounds were also tested in a solubility study. Each sample (2 mg) was weighed into a clear 1.75 mL vial followed by the addition of saline (40 μL, to make up to 50 mg/mL). Unless indicated otherwise, the compounds were tested as the free base. Each resulting mixture was vortexed (if required) and the solubility of each was identified visually.

Chain of NDM-1 (C7C422 whole entry, looked up, species assumed): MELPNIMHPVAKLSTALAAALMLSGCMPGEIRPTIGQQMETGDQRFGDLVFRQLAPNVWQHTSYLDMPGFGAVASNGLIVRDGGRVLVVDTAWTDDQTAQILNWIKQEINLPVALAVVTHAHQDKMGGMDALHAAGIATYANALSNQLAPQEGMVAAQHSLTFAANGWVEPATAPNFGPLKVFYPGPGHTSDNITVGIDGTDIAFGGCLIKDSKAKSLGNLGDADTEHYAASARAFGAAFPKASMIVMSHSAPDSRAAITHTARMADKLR

| IC50 [1] | Compound | CC50 at 24 h [2] | also measured |
| --- | --- | --- | --- |
| 2490 nM | NCCC(=O)Nc1ccc(-c2ccn(S(N)(=O)=O)c2C(=O)O)cn1 [Example 94, 3-[6-(3-Aminopropanoylamino)-3-pyridyl]-1-sulfamoyl-pyrrole-2-carboxylic acid, sodium salt] | > 256 µg/mL |  |
| 566 nM | NS(=O)(=O)n1ccc(-c2ccc(C(=O)NC[C@@H](O)CO)cc2)c1C(=O)O [Example 13, 3-[4-[[(2R)-2,3-Dihydroxypropyl]carbamoyl]phenyl]-1-sulfamoyl-pyrrole-2-carboxylic acid] | > 256 µg/mL |  |
| 568 nM | NS(=O)(=O)n1ccc(C2CCN(C(=O)[C@@H]3CCCN3)CC2)c1C(=O)O [Example 73, 3-[1-[(2S)-Pyrrolidine-2 carbonyl]-4-piperidyl]-1-sulfamoyl-pyirole-2-carboxylic acid] | > 256 µg/mL |  |
| 374 nM | CC(=O)NCCNC(=O)c1ccc(-c2ccn(S(N)(=O)=O)c2C(=O)O)cc1 [Example 10, 3-[4-(2-Acetamidoethyl-carbamoyl)phenyl]-1-sulfamoyl-pyrrole-2-carboxylic acid] | > 256 µg/mL |  |
| 410 nM | NS(=O)(=O)n1ccc(-c2ccc(C(=O)NC3CCNCC3)cc2)c1C(=O)O [Example 36, 3-[4-(4-Piperidylcarbamoyl)phenyl]-1-sulfamoyl-pyrrole-2-carboxylic acid hydrochloride] | > 256 µg/mL |  |
| 1480 nM | C[C@H](N)C(=O)N1CCC(c2ccn(S(N)(=O)=O)c2C(=O)O)CC1 [Example 69, 3-[1-[(2S)-2-Aminopropanoyl]-4-piperidyl]-1-sulfamoyl-pyrrole-2-carboxylic acid] | > 256 µg/mL | Number of targets ≥50% inhibition at 100 μM [9]: 0; Solubility [10]: Soluble |
| 163 nM | NCCNC(=O)c1cccc(-c2ccn(S(N)(=O)=O)c2C(=O)O)c1 [Example 47, 3-[3-(2-Aminoethylcarbamoyl)phenyl]-1-sulfamoyl-pyrrole-2-carboxylic acid hydrochloride] | > 256 µg/mL |  |
| 1550 nM | NS(=O)(=O)n1ccc(C2CCN(C(=O)C3CNC3)CC2)c1C(=O)O [Example 74, 3-[1-(Azetidine-3-carbonyl)-4-piperidyl]-1-sulfamoyl-pyrrole-2-carboxylic acid] | > 256 µg/mL |  |
| 319 nM | CNCCN(C)C(=O)c1ccc(-c2ccn(S(N)(=O)=O)c2C(=O)O)cc1 [Example 25, 3-[4-[Methyl-[2-(methylamino)ethyl]carbamoyl]phenyl]-1-sulfamoyl-pyrrole-2-carboxylic acid] | > 256 µg/mL | Number of targets ≥50% inhibition at 100 μM [9]: 0; Solubility [10]: Soluble |

The next lines start with the compound.

| Compound | IC50 [1] | CC50 at 24 h [2] | also measured |
| --- | --- | --- | --- |
| NCCNc1ccc(-c2ccn(S(N)(=O)=O)c2C(=O)O)cn1 [Example 95, 3-[6-(2-Aminoethylamino)-3-pyridyl]-1-sulfamoyl-pyrrole-2-carboxylic acid hydrochloride] | 377 nM | > 256 µg/mL |  |
| CNC(=O)c1cccc(-c2ccn(S(N)(=O)=O)c2C(=O)O)c1 [Example 1, 3-[3-(Methylcarbamoyl)phenyl]-1-sulfamoyl-pyrrole-2-carboxylic acid] | 223 nM | > 256 µg/mL |  |
| NC(=O)CNC(=O)c1ccc(-c2ccn(S(N)(=O)=O)c2C(=O)O)cc1 [Example 8, 3-[4-[(2-Amino-2-oxo-ethyl)carbamoyl]phenyl]-1-sulfamoyl-pyrrole-2-carboxylic acid] | 405 nM | > 128 µg/mL |  |
| NS(=O)(=O)n1ccc(-c2ccc(C(=O)NCCN3CCOCC3)cc2)c1C(=O)O [Example 15, 3-[4-(2-Morpholinoethyl-carbamoyl)phenyl]-1-sulfamoyl-pyrrole-2-carboxylic acid] | 1790 nM | > 256 µg/mL |  |
| NS(=O)(=O)n1ccc(-c2ccc(C(=O)NCC(=O)O)cc2)c1C(=O)O [Example 7, 3-[4-(Carboxymethyl-carbamoyl)phenyl]-1-sulfamoyl-pyrrole-2-carboxylic acid] | 650 nM | > 256 µg/mL |  |
| NS(=O)(=O)n1ccc(-c2ccc(C(=O)NCCN3CCCC3=O)cc2)c1C(=O)O [Example 16, 3-[4-[2-(2-Oxopyrrolidin-1-yl)ethylcarbamoyl]phenyl]-1-sulfamoyl-pyrrole-2-carboxylic acid] | 623 nM | > 256 µg/mL |  |
| C[C@@H](O)[C@H]1C(=O)N2C(C(=O)O)=C(S[C@@H]3CN[C@H](C(=O)N(C)C)C3)[C@H](C)[C@H]12 [Meropenem, meropenem] |  |  | Meropenem MIC (μg/mL) VII K. pneumoniae NCTC13439 VIM-1 [3]: 0.5 µg/mL; Meropenem MIC (μg/mL) II E. coli NCTC13476 IMP [4]: 4 µg/mL; Meropenem MIC (μg/mL) V K. pneumoniae NCTC13440 VIM-1 [5]: 1 µg/mL; Meropenem MIC (μg/mL) I E. coli ATCCBAA-2452 NDM-1 [6]: 1 µg/mL; Meropenem MIC (μg/mL) III K. pneumoniae ATCC BAA2146 NDM-1 [7]: 16 µg/mL; Meropenem MIC (μg/mL) IV A. baumannii SG698 NDM-1 [8]: 8 µg/mL |
| NC1CN(C(=O)c2ccc(-c3ccn(S(N)(=O)=O)c3C(=O)O)cc2)C1 [Example 21, 3-[4-(3-Aminoazetidine-1-carbonyl)phenyl]-1-sulfamoyl-pyrrole-2-carboxylic acid] | 78 nM | > 256 µg/mL |  |
| NCCNC(=O)c1ccc(-c2ccn(S(N)(=O)=O)c2C(=O)O)cc1 [Example 26, 3-[4-(2-Aminoethyl-carbamoyl)phenyl]-1-sulfamoyl-pyrrole-2-carboxylic acid] | 420 nM | > 256 µg/mL |  |
| NC1CN(C(=O)c2cccc(-c3ccn(S(N)(=O)=O)c3C(=O)O)c2)C1 [Example 31, 3-[3-(3-Aminoazetidine-1-carbonyl)phenyl]-1-sulfamoyl-pyrrole-2-carboxylic acid] | 3330 nM | > 256 µg/mL |  |
| CC(=O)N1CCC(c2ccn(S(N)(=O)=O)c2C(=O)O)C1 (centres unmarked) [Example 59, 3-[1-Acetylpyrrolidin-3-yl]-1-sulfamoyl-pyrrole-2-carboxylic acid] | 1610 nM | > 256 µg/mL |  |
| NS(=O)(=O)n1ccc(-c2ccc(C(=O)NC(CO)CO)cc2)c1C(=O)O [Example 12, 3-[4-[[2-Hydroxy-1-(hydroxymethyl)ethyl]carbamoyl]phenyl]-1-sulfamoyl-pyrrole-2-carboxylic acid] | 1060 nM | > 128 µg/mL |  |
| NS(=O)(=O)n1ccc(-c2ccc(C(=O)N[C@@H]3CCNC[C@H]3O)cc2)c1C(=O)O [Example 38, 3-[4-[[(3R,4R)-3-Hydroxy-4-piperidyl]carbamoyl]phenyl]-1-sulfamoyl-pyrrole-2-carboxylic acid] | 652 nM | > 256 µg/mL |  |
| CN(C)C(=O)c1ccc(-c2ccn(S(N)(=O)=O)c2C(=O)O)cc1 [Example 2, 3-[4-(Dimethylcarbamoyl)phenyl]-1-sulfamoyl-pyrrole-2-carboxylic acid] | 111 nM | > 256 µg/mL |  |
| N[C@@H](CO)C(=O)N1CCC(c2ccn(S(N)(=O)=O)c2C(=O)O)CC1 [Example 72, 3-[1-[(2S)-2-Amino-3-hydroxy-propanoyl]-4-piperidyl]-1-sulfamoyl-pyrrole-2-carboxylic acid] | 1570 nM | > 256 µg/mL |  |
| NS(=O)(=O)n1ccc(-c2ccc(C(=O)N[C@H]3[C@@H]4CNC[C@@H]43)cc2)c1C(=O)O [Example 43, 3-[4-[[(1S,5R)-3-Azabicyclo[3.1.0]hexan-6-yl]carbamoyl]phenyl]-1-sulfamoyl-pyrrole-2-carboxylic acid] | 273 nM | > 256 µg/mL |  |
| CN(C)CCNC(=O)c1ccc(-c2ccn(S(N)(=O)=O)c2C(=O)O)cc1 [Example 9, 3-[4-[2-(Dimethylamino)ethylcarbamoyl]phenyl]-1-sulfamoyl-pyrrole-2-carboxylic acid] | 373 nM | > 256 µg/mL |  |
| CCNCCNC(=O)c1ccc(-c2ccn(S(N)(=O)=O)c2C(=O)O)cc1 [Example 32, 3-[4-[2-(Ethylamino)ethylcarbamoyl]phenyl]-1-sulfamoyl-pyrrole-2-carboxylic acid] | 1060 nM | > 256 µg/mL |  |

Reference: patent US12544359B2, “1-aminosulfonyl-2-carboxypyrrole derivatives as metallo-beta-lactamase inhibitors” (INFEX Therapeutics Limited, priority 2019, dated 2026)
